Our source for the Ki values is ChEMBL document CHEMBL6092207 (J Med Chem, 2024).

A short description of assay [1]: Binding affinity to SARS-CoV-2 main protease E166 V mutant expressed in Escherichia coli assessed as dissociation constant using fluorogenic substrate incubated for 90 mins by fluorescence based analysis. Also noted: species or system Severe acute respiratory syndrome coronavirus 2.
Assay [2] is described as follows: Binding affinity to SARS-CoV-2 Omicron main protease P132H mutant expressed in Escherichia coli assessed as dissociation constant using fluorogenic substrate incubated for 90 mins by fluorescence based analysis. Set-up: species or system Severe acute respiratory syndrome coronavirus 2.

As for `CNC[C@@H](Cc1ccc(Cl)cc1)N(C)C(=O)C[C@H]1CCCN1C(=O)c1cncc2ccccc12`, the Ki – broadly, a measure of affinity in units of concentration, obtained from inhibition or displacement – stood at 1200 nM in assay [1] and 35 nM in assay [2].

Consider `CC(C)(C)[C@H](NC(=O)C(F)(F)F)C(=O)N1C[C@H]2[C@@H]([C@H]1C(=O)N[C@H](C#N)C[C@@H]1CCNC1=O)C2(C)C`, for which the Ki is more than 5000 nM in assay [1] and 1 nM in assay [2].

Consider `CN1C(=O)C[C@H]2CC3(CC3)CN2C(=O)c2cncc(c2)NCCC/C=C/CNC(=O)[C@H]1Cc1ccc(Cl)cc1Cl`, for which the inhibitory constant (Ki) in assay [1] is 11 nM; in assay [2] it was less than 1 nM.

As to `CN1C(=O)C[C@H]2CC3(CC3)CN2C(=O)c2cncc(c2)NCCCCCCNC(=O)[C@H]1Cc1ccc(Cl)cc1Cl`, the values for the inhibitory constant (Ki) in assay [1] and in assay [2] were 12 nM and less than 1 nM, respectively.
